EC50 and Emax data for eight compounds are collected here from patent US20250145600A1, “2-((4-((S)-2-(4-CHLORO-2-FLUOROPHENYL)-2-METHYLBENZO[D][1,3]DIOXOL-4-YL)PIPERIDIN-1-YL)METHYL)-1-(((S)-OXETAN-2-YL)METHYL)-1H-IMIDAZOLE DERIVATIVES AS ACTIVATORS OF THE GLP1 RECEPTOR FOR THE TREATMENT OF OBESITY” (Novartis AG, priority 2022, published 2025).

Some results are limits rather than exact numbers.

This assay concerns the target human GLP1R (hGLP1R) (Homo sapiens, UniProt P43220). In words: Human GLP1R β-arrestin recruitment assay (PathHunter). The class given is cell-based. Also on record: insert synthesized by GeneArt 93-0164 (CHO-K1-EA parental cells); 93-0491 (pCMV PK vector bundle). To be noted: CHO-hGLP1R-β-arrestin cells; for EC50: 2 h at 37° C., top concentration 30 μM, read-out: Beta-Arrestin assay EC50 Mean; for Emax: relative to GLP1(7-36), read-out: Beta-Arrestin assay Emax (%). As for the experimental part: Compounds of formula (I) according to the invention were tested in the following cellular assays that measure the intracellular cAMP concentration, beta-arrestin recruitment and receptor internalization. The cAMP is generated by the activation of GLP1R. The extent to which the GLP1R is internalized into the cell and away from the plasma membrane following activation is also shown in Table 2. EC50 for each assay is defined as the concentration of the compound that leads to half of the maximum response (after baseline correction). Emax is defined as the maximum response observed for the test compound, normalized to the maximum response observed for the endogenous ligand (GLP1(7-36)) to GLP1R.
Human GLP1R β-Arrestin Recruitment Assay
The extent to which agonists recruited β-arrestin was measured using the PathHunter® β-arrestin assay (DiscoverX). This assay measures binding of β-arrestin to the receptor using an enzyme complementation approach. […] When β-arrestin is recruited to the receptor the enzyme becomes active and generates luminescence in the presence of a chemiluminescent substrate (PathHunter® Detection Kit, DiscoverX cat #93-0001). Luminescence can be measured on a relevant detector. CHO-hGLP1R-β-arrestin cells stably overexpressing hGLP1R with Prolink tag and β-arrestin with EA tag were seeded at 20 μL per well in white 384-well poly-D-Lysine coated plates (Greiner Bio One, cat #781945) in Plating Reagent 2 (DiscoverX, cat #93-0563R^2A), and incubated overnight at 37° C., 5% CO2 with humidity. The following day, agonists were prepared at 5 times the final required concentration. To generate triplicate dose response curves, compounds were serially diluted 3-fold in assay buffer (HBSS, 10 mM Hepes and 0.1% BSA), then added to the cell assay plate to a final volume of 25 μL and final top concentrations starting at 30 μM. In the same plate and assay buffer as the tested compounds, were EC100 control wells containing GLP1 (7-36) peptide (Bachem, cat #H-6795) at a final concentration of 1 μM and also EC0 control wells containing no compound. The plate was incubated at 37° C., 5% CO2 with humidity for 2 h after adding the compounds to the cells. Then the detection reagent was prepared (19 parts cell assay buffer, 5 parts substrate reagent 1 and 1 part substrate reagent 2 as per manufacturers recommendations, DiscoverX cat #93-0001), and 12 μL were added per well to the cell assay plate. The plate was incubated for an additional hour in the dark at RT. Luminescence was then measured with an Envision 2104 Multilabel reader with “TRF Light Unit, 337 nm” (Perkin Elmer) using the Ultra-Sensitive protocol setting “384-well US luminescence detector” with the 384-well luminescence aperture, 0.1 sec per well. β-arrestin recruitment was calculated and expressed as percent of the GLP1 (7-36) EC100 control wells: [(sample signal−mean EC0 signal)/(mean EC100 of GLP1 (7-36) signal−mean EC0 signal)]*100 using Microsoft Excel. Curve fitting for EC50 determinations was performed using GraphPad Prism. The 4-parameter logistic model, Hill slope was used: Y=Bottom+(Top−Bottom)/(1+10^((Log EC50−X)*Hill Slope)), where Y is the functional response; X is the compound concentration; bottom is A0 or the minimum value (at 0 dose); top is Ainf or the maximum value (at infinite dose); EC50 is the point of inflection (i.e. the point on the sigmoid shaped curve halfway between A0 and Ainf). The EC50 value was calculated in μM. Emax is the maximal activity detected within the concentration range, derived from the fitted curve relative to GLP1(7-36).
PathHunter CHO-K1-EA parental cells (DiscoverX, cat #93-0164) were plated at a density of 2×10^6 cells per T75 cm^2 flask in 22 mL of complete medium (AssayComplete Cell Culture kit 107, DiscoverX, cat #92-3107G). The following day, the medium was replaced with 22 mL of fresh medium with no antibiotics and cells were transfected as follows. […]
On the technique in general: Arrestin recruitment assays detect the binding of arrestin to an activated receptor.

Sequence of human GLP1R (hGLP1R) (P43220 24-463): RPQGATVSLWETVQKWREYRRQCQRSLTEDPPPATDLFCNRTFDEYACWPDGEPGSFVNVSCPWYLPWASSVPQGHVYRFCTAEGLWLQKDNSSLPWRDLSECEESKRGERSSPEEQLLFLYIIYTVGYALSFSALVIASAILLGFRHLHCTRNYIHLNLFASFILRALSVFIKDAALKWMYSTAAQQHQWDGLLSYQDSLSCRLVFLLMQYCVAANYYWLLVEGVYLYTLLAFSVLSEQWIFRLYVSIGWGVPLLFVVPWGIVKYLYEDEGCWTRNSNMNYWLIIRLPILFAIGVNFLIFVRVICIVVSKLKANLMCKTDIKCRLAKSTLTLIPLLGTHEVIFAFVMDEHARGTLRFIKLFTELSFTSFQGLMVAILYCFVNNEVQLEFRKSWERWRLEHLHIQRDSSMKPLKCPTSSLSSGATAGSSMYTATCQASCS

The term EC50 denotes the concentration giving half of the maximal effect. Broadly, the Emax is the greatest response seen or fitted, relative to the assay's reference. Regarding `Cc1c(-c2nc(C(F)(F)F)c(C(=O)O)o2)nc(CN2CCC(c3cccc4c3O[C@@](C)(c3ccc(Cl)cc3F)O4)CC2)n1C[C@@H]1CCO1` [Compound C-14, 2-(2-((4-((S)-2-(4-chloro-2-fluorophenyl)-2-methylbenzo[d][1,3]dioxol-4-yl)piperidin-1-yl)methyl)-5-methyl-1-(((S)-oxetan-2-yl)methyl)-1H-imidazol-4-yl)-4-(trifluoromethyl)oxazole-5-carboxylic acid], the EC50 is above 30 µM and the Emax was 0%.
For `Cc1c(-c2cnc(C(=O)O)o2)nc(CN2CCC(c3cccc4c3O[C@@](C)(c3ccc(Cl)cc3F)O4)CC2)n1C[C@@H]1CCO1` [Compound C-16, 5-(2-((4-((S)-2-(4-chloro-2-fluorophenyl)-2-methylbenzo[d][1,3]dioxol-4-yl)piperidin-1-yl)methyl)-5-methyl-1-(((S)-oxetan-2-yl)methyl)-1H-imidazol-4-yl)oxazole-2-carboxylic acid], the 50% effective concentration (EC50) was above 30 µM and the Emax was 11%.
For the compound `Cc1c(-c2cc(C(=O)O)n(C)n2)nc(CN2CCC(c3cccc4c3O[C@@](C)(c3ccc(Cl)cc3F)O4)CC2)n1C[C@@H]1CCO1` [Compound C-17, 3-(2-((4-((S)-2-(4-chloro-2-fluorophenyl)-2-methylbenzo[d][1,3]dioxol-4-yl)piperidin-1-yl)methyl)-5-methyl-1-(((S)-oxetan-2-yl)methyl)-1H-imidazol-4-yl)-1-methyl-1H-pyrazole-5-carboxylic acid], the EC50 is above 30 µM and the Emax is 2%.
In the case of `Cc1c(-c2coc(C(=O)O)n2)nc(CN2CCC(c3cccc4c3O[C@@](C)(c3ccc(Cl)cc3F)O4)CC2)n1C[C@@H]1CCO1` [Compound C-18, 4-(2-((4-((S)-2-(4-chloro-2-fluorophenyl)-2-methylbenzo[d][1,3]dioxol-4-yl)piperidin-1-yl)methyl)-5-methyl-1-(((S)-oxetan-2-yl)methyl)-1H-imidazol-4-yl)oxazole-2-carboxylic acid], the EC50 is above 30 µM and the Emax was found to be 16%.
For `Cc1cc(-c2nc(CN3CCC(c4cccc5c4O[C@@](C)(c4ccc(Cl)cc4F)O5)CC3)n(C[C@@H]3CCO3)c2C)oc1C(=O)O` [Compound C-19, 5-(2-((4-((S)-2-(4-chloro-2-fluorophenyl)-2-methylbenzo[d][1,3]dioxol-4-yl)piperidin-1-yl)methyl)-5-methyl-1-(((S)-oxetan-2-yl)methyl)-1H-imidazol-4-yl)-3-methylfuran-2-carboxylic acid], the EC50 was above 30 µM and the Emax was 7%.
On the same counts, the results for `Cc1nc(CN2CCC(c3cccc4c3O[C@@](C)(c3ccc(Cl)cc3F)O4)CC2)n(C[C@@H]2CCO2)c1-c1coc(C(=O)O)n1` [Compound C-20, 4-(2-((4-((S)-2-(4-chloro-2-fluorophenyl)-2-methylbenzo[d][1,3]dioxol-4-yl)piperidin-1-yl)methyl)-4-methyl-1-(((S)-oxetan-2-yl)methyl)-1H-imidazol-5-yl)oxazole-2-carboxylic acid] are above 30 µM and 0%.
On the same counts, the results for `Cc1nc(CN2CCC(c3cccc4c3O[C@@](C)(c3ccc(Cl)cc3F)O4)CC2)n(C[C@@H]2CCO2)c1-c1cc(C(=O)O)n(C)n1` [Compound C-21, 3-(2-((4-((S)-2-(4-chloro-2-fluorophenyl)-2-methylbenzo[d][1,3]dioxol-4-yl)piperidin-1-yl)methyl)-4-methyl-1-(((S)-oxetan-2-yl)methyl)-1H-imidazol-5-yl)-1-methyl-1H-pyrazole-5-carboxylic acid] are above 30 µM and 0%.
Regarding `Cc1c(-c2ccc(C(=O)O)o2)nc(CN2CCC(c3cccc4c3O[C@@](C)(c3ccc(Cl)cc3F)O4)CC2)n1C[C@@H]1CCO1` [Compound C-24, 5-(2-((4-((S)-2-(4-chloro-2-fluorophenyl)-2-methylbenzo[d][1,3]dioxol-4-yl)piperidin-1-yl)methyl)-5-methyl-1-(((S)-oxetan-2-yl)methyl)-1H-imidazol-4-yl)furan-2-carboxylic acid], the 50% effective concentration (EC50) is above 30 µM and the Emax amounted to 1%.
